Assay results: the supplement of paper PMC10307832

Experiments:
Assay in all cases: relative viability (nuclei count vs DMSO), 5 days (fraction); higher = more cells survive
[1] = compound: CC(C)C[C@H](NC(=O)[C@H](CCc1ccccc1)NC(=O)CN1CCOCC1)C(=O)N[C@@H](Cc1ccccc1)C(=O)N[C@@H](CC(C)C)C(=O)[C@@]1(C)CO1 [Carfilzomib] + CS(=O)(=O)N1CCN(Cc2cc3nc(-c4cccc5[nH]ncc45)nc(N4CCOCC4)c3s2)CC1 [Pictilisib] (partner 1 µM)
Summary of the method: (§1)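 A single step with final 0.05% Triton X-100, 1% formaldehyde and 1 ug/ml Hoechst fixed the cells and stained nuclei 5 days after treatment. Lung cancer cell lines in 1536-well plates had been treated by pin tool the day after seeding with one drug alone or a fixed anchor-drug dose plus five library-drug doses (not always all listed) in √10 steps, and nuclei were counted on 4× images. Relative viability is the ratio of nuclei in treated wells to nuclei in vehicle wells, taken as the median of duplicate plates.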

[2] = compound: C[C@@H](Oc1cc(-c2cnn(C3CCNCC3)c2)cnc1N)c1c(Cl)ccc(F)c1Cl [Crizotinib] + N=C(N)NC(=N)NCCc1ccccc1 [Phenformin] (partner 250 µM)
Summary of the method: as §1

[3] = compound: C[C@@H](Oc1cc(-c2cnn(C3CCNCC3)c2)cnc1N)c1c(Cl)ccc(F)c1Cl [Crizotinib] + CC(=O)Nc1cccc(-n2c(=O)n(C3CC3)c(=O)c3c(Nc4ccc(I)cc4F)n(C)c(=O)c(C)c32)c1 [Trametinib] (partner 0.02 µM)
Summary of the method: as §1

[4] = compound: O=C(c1cc(Cc2n[nH]c(=O)c3ccccc23)ccc1F)N1CCN(C(=O)C2CC2)CC1 [Olaparib] + COc1cccc2cc(-c3nc([C@H]4CC[C@H](C(=O)O)CC4)n4ncnc(N)c34)[nH]c12 [OSI-027] (partner 0.5 µM)
Summary of the method: as §1

| Cell Line | relative viability ([1]; first compound 0.001 µM) | relative viability ([1]; first compound 0.003162 µM) | relative viability ([1]; first compound 0.01 µM) | relative viability ([1]; first compound 0.03162 µM) | relative viability ([1]; first compound 0.1 µM) | relative viability ([2]; first compound 0.01 µM) | relative viability ([2]; first compound 0.03162 µM) | relative viability ([2]; first compound 0.1 µM) | relative viability ([2]; first compound 0.3162 µM) | relative viability ([2]; first compound 1 µM) | relative viability ([3]; first compound 0.01 µM) | relative viability ([3]; first compound 0.03162 µM) | relative viability ([3]; first compound 0.1 µM) | relative viability ([3]; first compound 0.3162 µM) | relative viability ([3]; first compound 1 µM) | relative viability ([4]; first compound 0.08 µM) | relative viability ([4]; first compound 0.253 µM) | relative viability ([4]; first compound 2.53 µM) | relative viability ([4]; first compound 8 µM) |
| --- | --- | --- | --- | --- | --- | --- | --- | --- | --- | --- | --- | --- | --- | --- | --- | --- | --- | --- | --- |
| NCI-H2228 | 0.465 | 0.468 | 0.206 | 0.102 | 0.115 | 0.23 | 0.241 | 0.29 | 0.172 | 0.164 | 0.415 | 0.492 | 0.648 | 0.3 | 0.521 | 0.644 | 0.386 | 0.598 | 0.509 |
| NCI-H2347 | 0.662 | 0.623 | 0.67 | 0.549 | 0.318 | 0.24 | 0.329 | 0.473 | 0.488 | 0.333 | 0.265 | 0.274 | 0.292 | 0.321 | 0.272 | 0.472 | 0.371 | 0.344 | 0.37 |
| NCI-H2405 |  | 0.583 | 0.521 | 0.321 | 0.174 | 0.364 | 0.417 | 0.378 | 0.412 | 0.398 | 0.537 | 0.636 | 0.657 | 0.619 | 0.711 | 0.717 | 0.625 | 0.636 | 0.583 |
| NCI-H3122 | 0.585 | 0.615 | 0.6 | 0.602 | 0.34 | 0.374 | 0.38 | 0.4 | 0.333 | 0.236 | 0.207 | 0.219 | 0.197 | 0.21 | 0.238 | 1.14 | 0.954 | 1.01 | 0.814 |
| PC-3 [JPC-3] | 0.782 | 0.747 | 0.677 | 0.707 | 0.259 | 0.469 | 0.506 | 0.482 | 0.452 | 0.482 | 0.634 | 0.721 | 0.759 |  | 0.651 | 0.825 | 0.711 | 0.824 | 0.747 |
| PC-14 | 0.55 | 0.816 | 0.364 | 0.0334 | 0.0646 | 0.562 | 0.675 | 0.642 | 0.526 | 0.522 | 0.842 | 0.742 | 0.78 | 0.699 | 0.756 | 1.27 | 0.795 | 0.805 | 0.471 |
| RERF-LC-KJ | 0.528 | 0.469 | 0.675 | 0.265 | 0.149 |  | 0.421 | 0.409 | 0.435 | 0.409 | 0.955 | 0.885 | 0.831 | 0.827 | 0.905 | 0.66 | 0.592 | 0.598 | 0.614 |
| SK-LU-1 | 0.518 | 0.653 | 0.541 | 0.201 | 0.15 | 0.544 | 0.535 | 0.506 | 0.499 | 0.547 | 0.455 | 0.396 | 0.539 | 0.457 | 0.512 | 0.345 | 0.331 | 0.382 | 0.24 |
| SK-MES-1 | 0.338 | 0.419 | 0.337 | 0.283 | 0.174 | 0.617 | 0.676 | 0.638 | 0.645 | 0.593 | 0.511 | 0.561 | 0.54 | 0.621 | 0.57 | 0.674 | 0.553 | 0.577 | 0.459 |
| SW 1573 | 0.517 | 0.512 | 0.404 | 0.277 | 0.0513 | 0.418 | 0.376 | 0.39 | 0.302 | 0.391 | 0.531 | 0.473 | 0.594 | 0.567 | 0.615 | 0.738 | 0.675 | 0.471 | 0.517 |
| UMC-11 | 0.608 | 0.956 | 0.778 | 0.648 | 0.336 | 0.259 | 0.339 | 0.321 | 0.27 | 0.306 | 0.7 | 0.751 | 0.683 | 0.227 | 0.985 | 0.474 | 0.392 | 0.481 | 0.334 |
